Test results as given in ChEMBL document CHEMBL1201862, “PubChem BioAssay data set” (2004).
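These data come from cells grown in 96-well plates and exposed to compound for 48 hours at five concentrations. GI50 = concentration required for 50% inhibition of growth.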 Activity calls are given as the source filed them. No stated cut-off is given here; in the data, active = GI50 up to about 1.1 µM and inactive = higher.

Experiments:
Experiment in all cases: DTP human tumour cell line panel, 48 h
786-0 = system: 786-0
CCRF-CEM = system: CCRF-CEM
DU-145 = system: DU-145
EKVX = system: EKVX
HCT-15 = system: HCT-15
HL-60 = system: HL-60
MCF7 = system: MCF7
MDA-MB-231 = system: MDA-MB-231
Malme-3M = system: Malme-3M
NCI-H23 = system: NCI-H23
NCI-H460 = system: NCI-H460
SF-295 = system: SF-295
SK-MEL-2 = system: SK-MEL-2
SK-MEL-5 = system: SK-MEL-5
SK-OV-3 = system: SK-OV-3
SN12C = system: SN12C
SNB-75 = system: SNB-75
SW-620 = system: SW-620
T47D = system: T47D
IGROV-1 = system: IGROV-1

Compound | GI50 (786-0) | GI50 (CCRF-CEM) | GI50 (DU-145) | GI50 (EKVX) | GI50 (HCT-15) | GI50 (HL-60) | GI50 (MCF7) | GI50 (MDA-MB-231) | GI50 (Malme-3M) | GI50 (NCI-H23) | GI50 (NCI-H460) | GI50 (SF-295) | GI50 (SK-MEL-2) | GI50 (SK-MEL-5) | GI50 (SK-OV-3) | GI50 (SN12C) | GI50 (SNB-75) | GI50 (SW-620) | GI50 (T47D) | GI50 (IGROV-1)
Cc1[nH]n(-c2ccccc2)c(=O)c1C(N(CCc1ccccc1)C1=NCC(C)S1)(C(F)(F)F)C(F)(F)F (stereo not drawn) | 13.9 µM (inactive) | 19.3 µM (inactive) | 27.2 µM (inactive) | 11.3 µM (inactive) | 13.3 µM | 7.69 µM (inactive) | 10.7 µM (inactive) | 18.8 µM (inactive) | 11.1 µM (inactive) | 5.16 µM (inactive) | 13.9 µM (inactive) | 9.02 µM (inactive) | 8.51 µM (inactive) | 7.71 µM (inactive) | 25.4 µM (inactive) | 17.8 µM (inactive) | 16.5 µM (inactive) | 18.1 µM (inactive) | 5.19 µM (inactive) | –
O=C1C2=Cc3ccccc3OC2(O)Oc2cc3ccccc3cc21 (stereo not drawn) | > 100 µM (inactive) | > 100 µM (inactive) | > 100 µM (inactive) | > 100 µM (inactive) | > 100 µM | – | > 100 µM (inactive) | > 100 µM (inactive) | > 100 µM (inactive) | > 100 µM (inactive) | > 100 µM (inactive) | 94.8 µM (inactive) | > 100 µM (inactive) | > 100 µM (inactive) | 56.5 µM (inactive) | > 100 µM (inactive) | 25.9 µM (inactive) | > 100 µM (inactive) | > 100 µM (inactive) | 28.7 µM (inactive)
O=C1NC(NCc2ccc(F)cc2)=N/C1=C\c1ccccc1Cl | 11.2 µM (inactive) | – | 19.9 µM (inactive) | 19.8 µM (inactive) | 19.1 µM | 13.4 µM (inactive) | 19.6 µM (inactive) | 17.8 µM (inactive) | 16.8 µM (inactive) | – | 25 µM (inactive) | 17.1 µM (inactive) | 15.8 µM (inactive) | 13.4 µM (inactive) | 26.3 µM (inactive) | 14.8 µM (inactive) | 7.4 µM (inactive) | 13.5 µM (inactive) | 5.41 µM (inactive) | 19.2 µM (inactive)
COC(=O)N1C[C@@]2(C=CC3(CC2)OCCO3)c2ccccc21 | > 100 µM (inactive) | 45.2 µM (inactive) | > 100 µM (inactive) | 62.1 µM (inactive) | 57.3 µM | 11.2 µM (inactive) | 96.4 µM (inactive) | > 100 µM (inactive) | – | 95.7 µM (inactive) | 90.4 µM (inactive) | > 100 µM (inactive) | > 100 µM (inactive) | 81.7 µM (inactive) | > 100 µM (inactive) | > 100 µM (inactive) | 53.6 µM (inactive) | 40.8 µM (inactive) | > 100 µM (inactive) | 49.1 µM (inactive)
CCOc1ccccc1/N=C\c1c2ccccc2cc2ccccc12 | 18.8 µM (inactive) | 9.29 µM (inactive) | 22.1 µM (inactive) | 18.1 µM (inactive) | 24.4 µM | 16 µM (inactive) | 29.4 µM (inactive) | 27.2 µM (inactive) | – | 17.3 µM (inactive) | 29.9 µM (inactive) | 30 µM (inactive) | 22.1 µM (inactive) | 25.6 µM (inactive) | 22.3 µM (inactive) | 22.4 µM (inactive) | 19.5 µM (inactive) | 24.5 µM (inactive) | 18.9 µM (inactive) | 22.8 µM (inactive)
CCOC(=O)C(=O)N/N=C1\C(=O)Nc2ccccc21 | > 100 µM (inactive) | > 100 µM (inactive) | > 100 µM (inactive) | > 100 µM (inactive) | > 100 µM | – | > 100 µM (inactive) | > 100 µM (inactive) | > 100 µM (inactive) | > 100 µM (inactive) | > 100 µM (inactive) | > 100 µM (inactive) | > 100 µM (inactive) | > 100 µM (inactive) | > 100 µM (inactive) | > 100 µM (inactive) | > 100 µM (inactive) | > 100 µM (inactive) | > 100 µM (inactive) | > 100 µM (inactive)
CCOP(=O)(OCC)[C@H](O)c1ccsc1 | > 100 µM (inactive) | > 100 µM (inactive) | > 100 µM (inactive) | > 100 µM (inactive) | > 100 µM | – | > 100 µM (inactive) | > 100 µM (inactive) | > 100 µM (inactive) | > 100 µM (inactive) | > 100 µM (inactive) | > 100 µM (inactive) | > 100 µM (inactive) | > 100 µM (inactive) | > 100 µM (inactive) | > 100 µM (inactive) | > 100 µM (inactive) | > 100 µM (inactive) | > 100 µM (inactive) | > 100 µM (inactive)
Cc1nn(-c2ccccc2)c2c1N=C(C(=O)O)CC(c1ccccc1)=N2 | > 10 µM (inactive) | – | > 10 µM (inactive) | – | > 10 µM | > 10 µM (inactive) | > 10 µM (inactive) | > 10 µM (inactive) | > 10 µM (inactive) | > 10 µM (inactive) | – | > 10 µM (inactive) | – | > 10 µM (inactive) | > 10 µM (inactive) | > 10 µM (inactive) | > 10 µM (inactive) | > 10 µM (inactive) | > 10 µM (inactive) | > 10 µM (inactive)
